From patent publication US20110039721A1, “METHOD FOR PREDICTION ABOUT CARCINOGENICITY OF SUBSTANCE IN RODENT” (Chemicals Evaluation and Research Institute, priority 2007, published 2011)

Columns and labels:
[1] = system: rodent; conditions: in vivo; cited from earlier work
[2] = system: liver; conditions: in vivo; cited from earlier work
[3] = system: mRNA expressed from the genes (A) to (D) in rat liver; test: Behavior of genes (mRNA expression level, oligo-DNA microarray) in rat liver after 28-day oral administration; format: in vivo; conditions: mRNA vs vehicle control group
How it was run: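 Groups of four male F344 SPF rats aged 5 weeks are gavaged once a day for 28 days with test chemical in solvent or with solvent alone at equal volume. Total RNA comes from liver taken on day 28. Fold change of 1.5 or 1/1.5 versus control, directionally consistent, defines significance.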

[4] = gene group (A), Unigene No. Rn.167075
[5] = gene group (C), Unigene No. Rn.120914

CN(C)c1ccc(N=Nc2ccccc2)cc1 [TS077, 4-Dimethylaminoazobenzene]
C+: Carcinogenicity [1]
−: Behavior of gene caused by administration of chemical substance, Gene No. 4846 ([3]; gene group (A), Unigene No. Rn.144554) | Behavior of gene caused by administration of chemical substance, Gene No. 2026 [3, 4] | Behavior of gene caused by administration of chemical substance, Gene No. 4218 [3, 4] | Behavior of gene caused by administration of chemical substance, Gene No. 5600 ([3]; gene group (A), Unigene No. Rn.9836) | Behavior of gene caused by administration of chemical substance, Gene No. 2203 ([3]; gene group (B), Unigene No. Rn.21240) | Behavior of gene caused by administration of chemical substance, Gene No. 533 ([3]; gene group (C), Unigene No. Rn.106184) | Behavior of gene caused by administration of chemical substance, Gene No. 725 ([3]; gene group (C), Unigene No. Rn.108075) | Behavior of gene caused by administration of chemical substance, Gene No. 1163 ([3]; gene group (C), Unigene No. Rn.11766) | Behavior of gene caused by administration of chemical substance, Gene No. 4973 ([3]; gene group (C), Unigene No. Rn.118529) | Behavior of gene caused by administration of chemical substance, Gene No. 4095 ([3]; gene group (C), Unigene No. Rn.119024) | Behavior of gene caused by administration of chemical substance, Gene No. 1334 [3, 5] | Behavior of gene caused by administration of chemical substance, Gene No. 6620 [3, 5] | Behavior of gene caused by administration of chemical substance, Gene No. 5878 ([3]; gene group (C), Unigene No. Rn.143213) | Behavior of gene caused by administration of chemical substance, Gene No. 1131 ([3]; gene group (C), Unigene No. Rn.144946) | Behavior of gene caused by administration of chemical substance, Gene No. 1562 ([3]; gene group (C), Unigene No. Rn.14744) | Behavior of gene caused by administration of chemical substance, Gene No. 1741 ([3]; gene group (C), Unigene No. Rn.1647) | Behavior of gene caused by administration of chemical substance, Gene No. 893 ([3]; gene group (C), Unigene No. Rn.164817) | Behavior of gene caused by administration of chemical substance, Gene No. 154 ([3]; gene group (C), Unigene No. Rn.185941) | Behavior of gene caused by administration of chemical substance, Gene No. 1993 ([3]; gene group (C), Unigene No. Rn.18728) | Behavior of gene caused by administration of chemical substance, Gene No. 813 ([3]; gene group (C), Unigene No. Rn.201760) | Behavior of gene caused by administration of chemical substance, Gene No. 2494 ([3]; gene group (C), Unigene No. Rn.23969) | Behavior of gene caused by administration of chemical substance, Gene No. 2546 ([3]; gene group (C), Unigene No. Rn.24561) | Behavior of gene caused by administration of chemical substance, Gene No. 3776 ([3]; gene group (C), Unigene No. Rn.43232) | Behavior of gene caused by administration of chemical substance, Gene No. 3929 ([3]; gene group (C), Unigene No. Rn.4620) | Behavior of gene caused by administration of chemical substance, Gene No. 1119 ([3]; gene group (C), Unigene No. Rn.9757) | Behavior of gene caused by administration of chemical substance, Gene No. 6742 ([3]; gene group (C), Unigene No. Rn.9779) | Behavior of gene caused by administration of chemical substance, Gene No. 5634 ([3]; gene group (C), Unigene No. Rn.9862)
Cr+: Liver carcinogenicity [2]
+: Behavior of gene caused by administration of chemical substance, Gene No. 6182 ([3]; gene group (A), Unigene No. Rn.5834) | Behavior of gene caused by administration of chemical substance, Gene No. 1494 ([3]; gene group (B), Unigene No. Rn.1430) | Behavior of gene caused by administration of chemical substance, Gene No. 2045 ([3]; gene group (B), Unigene No. Rn.19329) | Behavior of gene caused by administration of chemical substance, Gene No. 6303 ([3]; gene group (C), Unigene No. Rn.123063) | Behavior of gene caused by administration of chemical substance, Gene No. 6026 ([3]; gene group (C), Unigene No. Rn.167685) | Behavior of gene caused by administration of chemical substance, Gene No. 5726 ([3]; gene group (D), Unigene No. Rn.9939)
